Here are results for 31 compounds from patent US12384780B2, “PARP1 inhibitors and uses thereof” (XinThera, Inc., priority 2022, dated 2025).

Where only a bound is given, the exact number is not on record here.

Test [1] relates to MDA-MB-436 (mutated BRCA1) cells. Kind of test: Cell growth inhibition assay (CellTiter-Glo), MDA-MB-436. The settings on record: Homo sapiens, MDA-MB-436, 168 h, 500 cells/well, 7 days, CellTiter Glo 2.0; read-out: MDA-MB-436 pEC50 (converted). The format is cell-based. On the procedure:
(§1) Cell proliferation was measured through the cell viability assay using DLD-1 BRCA2(−/−) and parental isogenic pair and MDA-MB-436 (mutated BRCA1) cell lines. The CellTiter-Glo (CTG) based cell viability assay is designed to determine the number of viable cells in the culture because of compound effect, by quantifying ATP, which indicates the presence of metabolically active cells.
(§2) DLD-1 BRCA2(−/−) and parental isogenic pair were cultured in RPMI 1640 supplemented with […] (FBS), and […] cells were cultured in DMEM supplemented with 10% FBS. Both were cultured at 37° C. with […]. Invention compounds were distributed to the 384 well plate (Corning, 3764) using Echo acoustic liquid handler to form a 1:3 serially diluted final concentration with top dose of 10 or 30 μM. The cells were seeded into the plate in the density of 50 cells/well (DLD-1 parental), 200 cells/well (DLD-1 BRCA2−/−), or 500 cells/well (MDA-MB-436). After a short spun, the cells were cultured in a well moisturized incubator at 37° C. with 5% CO2 for 7 days without disturbance. The cell viability was measured by CellTiter Glo 2.0 assay kit (Promega, G9243), and growth inhibition rate was calculated and plotted against final compound concentration, and the data were fitted in Xfit to generate IC50 values.
(In ATP-based viability assays light output follows the ATP content of the culture.)

The test system of the next test is DLD-1 BRCA2(−/−) cells. Kind of test: Cell growth inhibition assay (CellTiter-Glo), DLD-1 BRCA2(−/−). The format is cell-based. The settings on record: Homo sapiens, DLD-1, 168 h; 200 cells/well, 7 days, CellTiter Glo 2.0; read-out: DLD-1 BRCA2(−/−) pEC50 (converted). As to the method: as §1, §2
The target of another test is T1, PARP2 (Homo sapiens, UniProt Q9UGN5).
T1 construct: made in house
T1 sequence (Q9UGN5 whole entry): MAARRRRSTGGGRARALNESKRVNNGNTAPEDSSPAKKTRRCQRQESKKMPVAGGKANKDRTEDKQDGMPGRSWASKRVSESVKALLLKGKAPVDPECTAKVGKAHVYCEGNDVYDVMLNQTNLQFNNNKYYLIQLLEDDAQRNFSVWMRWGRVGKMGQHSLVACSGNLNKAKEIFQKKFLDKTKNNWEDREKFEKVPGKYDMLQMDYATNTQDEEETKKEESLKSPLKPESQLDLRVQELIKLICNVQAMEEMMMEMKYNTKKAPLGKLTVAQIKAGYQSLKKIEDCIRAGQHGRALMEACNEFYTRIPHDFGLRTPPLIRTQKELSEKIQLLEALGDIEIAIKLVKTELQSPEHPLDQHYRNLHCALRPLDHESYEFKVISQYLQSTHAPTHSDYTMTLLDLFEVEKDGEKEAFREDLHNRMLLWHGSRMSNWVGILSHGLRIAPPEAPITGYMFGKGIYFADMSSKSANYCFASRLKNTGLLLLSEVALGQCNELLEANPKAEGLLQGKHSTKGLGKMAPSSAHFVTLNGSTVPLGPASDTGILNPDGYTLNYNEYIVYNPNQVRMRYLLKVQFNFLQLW
Kind of test: Biochemical fluorescent polarization (FP) assay, displacement of PARPi-FL, PARP2. The format is binding. The settings on record: 20 nM protein, 3 nM PARPi-FL, 4 h at room temperature; read-out: FP PARP2 pIC50 (converted). As to the method:
(§3) Compounds were characterized using an assay measuring the displacement of a commercially available fluorescently labeled PARP 1/2 inhibitor (PARPi-FL, Tocris Biosciences, #6461) as exemplified in assays performed in WO2014/064149 and WO2021/013735A1. The assay was performed utilizing the following method: Compounds were dissolved in DMSO an Echo550 liquid handler was utilized to make serial dilations in the desired concentration range in Optiplate-384F plates. 100% DMSO was used for the high (with protein) and low (without protein) control samples. 20 nL of compound or DMSO alone was added to individual assay plate wells. PARP1 and PARP2 protein were expressed, purified, and diluted in assay buffer containing 50 mM Tris pH 8.0, 0.001% Triton X-100, 10 mM MgCl2, 150 mM NaCl to a final concentration of 20 nM. The PARPi-FL was then added at a final concentration of 3 nM. The assay plate was centrifuged at 1000 rpm for 1 min and incubated for 4 h at room temperature. […] [formula]

The target of a further test is T2, PARP1 (Homo sapiens, UniProt P09874).
T2 construct: made in house
T2 sequence (P09874 whole entry): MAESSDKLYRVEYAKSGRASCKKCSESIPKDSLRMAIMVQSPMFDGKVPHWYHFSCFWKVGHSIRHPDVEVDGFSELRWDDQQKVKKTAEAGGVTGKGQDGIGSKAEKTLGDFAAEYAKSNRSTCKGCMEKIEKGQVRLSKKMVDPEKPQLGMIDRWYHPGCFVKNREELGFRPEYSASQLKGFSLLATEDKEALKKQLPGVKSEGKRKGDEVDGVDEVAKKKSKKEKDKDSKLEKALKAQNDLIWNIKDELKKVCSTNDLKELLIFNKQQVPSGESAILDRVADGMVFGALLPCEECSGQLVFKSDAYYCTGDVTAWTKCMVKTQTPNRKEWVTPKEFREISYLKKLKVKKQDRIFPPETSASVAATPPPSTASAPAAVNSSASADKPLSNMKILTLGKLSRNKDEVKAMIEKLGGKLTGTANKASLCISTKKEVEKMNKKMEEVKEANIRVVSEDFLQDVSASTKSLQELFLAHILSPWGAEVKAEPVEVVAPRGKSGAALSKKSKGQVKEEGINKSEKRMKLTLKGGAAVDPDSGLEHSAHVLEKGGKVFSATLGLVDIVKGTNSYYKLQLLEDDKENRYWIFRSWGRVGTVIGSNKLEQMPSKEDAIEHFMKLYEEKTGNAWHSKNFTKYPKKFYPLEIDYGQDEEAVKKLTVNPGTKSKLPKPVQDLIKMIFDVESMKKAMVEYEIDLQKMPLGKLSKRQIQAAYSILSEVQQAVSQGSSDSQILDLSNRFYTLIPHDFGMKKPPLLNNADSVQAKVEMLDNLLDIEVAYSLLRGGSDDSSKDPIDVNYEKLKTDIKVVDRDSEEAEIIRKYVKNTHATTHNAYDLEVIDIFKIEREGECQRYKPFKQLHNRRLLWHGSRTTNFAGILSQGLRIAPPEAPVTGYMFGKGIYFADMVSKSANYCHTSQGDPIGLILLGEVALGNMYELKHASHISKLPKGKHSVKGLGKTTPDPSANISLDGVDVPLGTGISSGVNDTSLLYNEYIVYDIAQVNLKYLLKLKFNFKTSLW
Kind of test: Biochemical fluorescent polarization (FP) assay, displacement of PARPi-FL, PARP1. The format is binding. The settings on record: 20 nM protein, 3 nM PARPi-FL, 4 h at room temperature; read-out: FP PARP1 pIC50 (converted). On the procedure: as §3

With `CCc1cc2ncc(CN3CCN(c4ccc(C#N)nc4)[C@H]4C[C@H]43)cc2[nH]c1=O` (single isomer, unassigned) [Example 14], the EC50 in test [1] was 50.1 nM; in the test with DLD-1 BRCA2(−/−) cells it was 63.1 nM. The IC50 on PARP2 was 6310 nM; at PARP1 it was 5.01 nM.
Taken in the same sequence, the figures for `CCc1cc2ncc(CN3CCN(c4ccc(C#N)nc4)[C@@H]4C[C@@H]43)cc2[nH]c1=O` (single isomer, unassigned) [Example 15] were 5.01 nM, 7.94 nM, 10000 nM and 5.01 nM.
On the same counts, the results for `Cc1cc2ncc(CN3CCN(c4ccc(C#N)cn4)[C@H]4C[C@H]43)cc2[nH]c1=O` (single isomer, unassigned) [Example 19] are 158 nM, 200 nM, over 100000 nM and 6.31 nM.
On the same counts, the results for `N#Cc1ccc(N2CCN(Cc3cnc4cc(C5CC5)c(=O)[nH]c4c3)[C@H]3C[C@H]32)nc1` (single isomer, unassigned) [Example 20] are 39.8 nM, 50.1 nM, 2510 nM and 5.01 nM.
As for `Cc1cc2ncc([C@@H](C)N3CCN(c4ccc(C#N)cn4)[C@H](C)C3)cc2[nH]c1=O` (single isomer, unassigned) [Example 28, rel-6-[(2R)-2-methyl-4-[(1R*)-1-(7-methyl-6-oxo-5H-1,5-naphthyridin-3-yl)ethyl]piperazin-1-yl]pyridine-3-carbonitrile], the EC50 (in test [1]; with DLD-1 BRCA2(−/−) cells) was 63.1 nM in each case. Moreover, the IC50 was over 100000 nM at PARP2 and over 100 nM on PARP1.
For `C#Cc1cc2ncc(CN3CCN(c4ccc(C#N)nc4)CC3)cc2[nH]c1=O` [Example 1, 5-{4-[(7-ethynyl-6-oxo-5H-1,5-naphthyridin-3-yl)methyl]piperazin-1-yl}pyridine-2-carbonitrile], the EC50 (in test [1]; in the test on DLD-1 BRCA2(−/−) cells) was 63.1 nM throughout. Moreover, the IC50 on PARP1 was 15.8 nM.
Take `CCc1cc2ncc(CN3CCN(c4ccc(F)cn4)CC3)cc2[nH]c1=O` [Example 4]: the EC50 (in test [1]; with DLD-1 BRCA2(−/−) cells) was 2 nM each time.
For the compound `CCc1nc2cc(F)c(CN3CCN(c4ccc(C#N)cn4)CC3)cc2[nH]c1=O` [Example 12, 6-{4-[(2-ethyl-7-fluoro-3-oxo-4H-quinoxalin-6-yl)methyl]piperazin-1-yl}pyridine-3-carbonitrile], the EC50 (in test [1]; with DLD-1 BRCA2(−/−) cells) was 10 nM in each case. The IC50 at PARP1 was 7.94 nM.
Consider `N#Cc1ccc(N2CCN(Cc3cnc4cc(C5CC5)c(=O)[nH]c4c3)CC2)nc1` [Example 17], for which the EC50 in test [1] is 2 nM; in the test with DLD-1 BRCA2(−/−) cells, 2.51 nM.
Regarding `CCc1cc2ncc(CN3CCN(c4ccc(C#N)cc4F)CC3)cc2[nH]c1=O` [Example 45], the results for the EC50 (in test [1]; in the test on DLD-1 BRCA2(−/−) cells) were 1 nM and 1.26 nM, respectively.
Consider `N#Cc1ccc(N2CCN(Cc3cnc4cc(C5CC5)c(=O)[nH]c4c3)CC2)c(F)c1` [Example 46], for which the EC50 in test [1] is 1.58 nM; with DLD-1 BRCA2(−/−) cells it was 2 nM. For the same compound, at PARP1, the IC50 was 10 nM.
For `O=c1[nH]c2cc(CN3CCN(c4ccc(F)cn4)CC3)cnc2cc1Cl` [Example 47, 3-chloro-7-{[4-(5-fluoropyridin-2-yl)piperazin-1-yl]methyl}-1H-1,5-naphthyridin-2-one], the EC50 is 7.94 nM in test [1] and 2.51 nM in the test with DLD-1 BRCA2(−/−) cells. The IC50 at PARP1 is 10 nM.
Taken in the same sequence, the figures for `Cc1nc2c(F)cc(CN3CCN(c4ccc(C#N)cn4)CC3)cc2[nH]c1=O` [Example 49, 6-{4-[(8-fluoro-2-methyl-3-oxo-4H-quinoxalin-6-yl)methyl]piperazin-1-yl}pyridine-3-carbonitrile] were 12.6 nM, 10 nM and 10 nM.
On the same counts, the results for `Cc1cc2ncc(CN3CCN(c4ccc(C#N)cc4C#N)CC3)cc2[nH]c1=O` [Example 50] are 1.58 nM, 2 nM and 25.1 nM.
On the same counts, the results for `Cc1cc2ncc(CN3CCN(c4ccc(Cl)cc4C#N)CC3)cc2[nH]c1=O` [Example 51] are 2.51 nM, 3.98 nM and 20 nM.
Take `Cc1cc2ncc(CN3CCN(c4cc(F)c(F)cc4C#N)CC3)cc2[nH]c1=O` [Example 53]: the EC50 in test [1] was 5.01 nM; in the test on DLD-1 BRCA2(−/−) cells, 6.31 nM. On PARP1, the IC50 is 12.6 nM.
Taken in the same sequence, the figures for `CCc1cc2ncc(CN3CCN(c4ncc(C#N)cc4F)CC3)cc2[nH]c1=O` [Example 54] were 79.4 nM, 63.1 nM and 63.1 nM.
On the same counts, the results for `CCc1cc2ncc(CN3CCN(c4ncc(F)cc4C#N)CC3)cc2[nH]c1=O` [Example 56] are 63.1 nM, 100 nM and 15.8 nM.
Taken in the same sequence, the figures for `N#Cc1ccc(N2CCN(Cc3cnc4cc(C(F)F)c(=O)[nH]c4c3)CC2)c(F)n1` [Example 62] were 1.26 nM, 1.58 nM and 63.1 nM.
For `CCc1cc2ncc(CN3CCN(c4cnc(Cl)cc4C#N)CC3)cc2[nH]c1=O` [Example 65], the EC50 in test [1] was 2.51 nM; in the test with DLD-1 BRCA2(−/−) cells, 3.16 nM.
Regarding `Cc1nc2ccc(CN3CCN(c4ccc(C#N)cn4)CC3)c(F)c2[nH]c1=O` [Example 70], the EC50 in test [1] was 31.6 nM; in the test with DLD-1 BRCA2(−/−) cells, 25.1 nM. Further, the IC50 on PARP1 was 10 nM.
For the compound `Cc1cc2ccc(CN3CCN(c4ccc(C#N)cn4)CC3)c(F)c2[nH]c1=O` [Example 71, 6-{4-[(8-fluoro-3-methyl-2-oxo-1H-quinolin-7-yl)methyl]piperazin-1-yl}pyridine-3-carbonitrile], the EC50 in test [1] was 15.8 nM; with DLD-1 BRCA2(−/−) cells it was 12.6 nM. Moreover, at PARP1, the IC50 was 10 nM.
Taken in the same sequence, the figures for `Cc1nc2c(F)c(F)c(CN3CCN(c4ccc(C#N)cn4)CC3)cc2[nH]c1=O` [Example 72] were 39.8 nM, 63.1 nM and 15.8 nM.
As to `Cc1nc2ccc(CN3CCN(c4ccc(C#N)nc4Cl)CC3)c(F)c2[nH]c1=O` [Example 73], the EC50 in test [1] is 15.8 nM; in the test with DLD-1 BRCA2(−/−) cells it was 20 nM. Besides, the IC50 on PARP1 was 25.1 nM.
With `Cc1nc2ccc(CN3CCN(c4ccc(C#N)nc4F)CC3)c(F)c2[nH]c1=O` [Example 74], the EC50 in test [1] was 31.6 nM; with DLD-1 BRCA2(−/−) cells, 20 nM. The IC50 at PARP1 is 15.8 nM.
Taken in the same sequence, the figures for `Cc1cc(C#N)ccc1N1CCN(Cc2cnc3cc(C(F)F)c(=O)[nH]c3c2)CC1` [Example 75] were 0.501 nM, 0.631 nM and 25.1 nM.
On the same counts, the results for `N#Cc1ccc(N2CCN(Cc3cnc4cc(Cl)c(=O)[nH]c4c3)CC2)c(F)c1` [Example 76] are 5.01 nM, 5.01 nM and 63.1 nM.
Taken in the same sequence, the figures for `N#Cc1ccc(N2CCN(Cc3cnc4cc(C(F)F)c(=O)[nH]c4c3)CC2)c(C(F)F)c1` [Example 80] were 1 nM, 1.26 nM and 15.8 nM.
On to `N#Cc1ccc(N2CCN(Cc3cnc4cc(C(F)F)c(=O)[nH]c4c3)CC2)c(Cl)n1` [Example 81], for which the EC50 (in test [1]; with DLD-1 BRCA2(−/−) cells) was 0.631 nM in each case. Further, on PARP1, the IC50 is 10 nM.
On to `Cc1c(C(F)F)c2ncc(CN3CCN(c4ccc(C#N)cn4)CC3)cc2[nH]c1=O` [Example 82, 6-(4-((8-(difluoromethyl)-7-methyl-6-oxo-5,6-dihydro-1,5-naphthyridin-3-yl)methyl)piperazin-1-yl)nicotinonitrile], for which the values for the EC50 (in test [1]; in the test with DLD-1 BRCA2(−/−) cells) were 39.8 nM and 100 nM, respectively. Further, the IC50 at PARP1 was 31.6 nM.
Taken in the same sequence, the figures for `N#Cc1ccc(N2CCN(Cc3ccc4cc(Cl)c(=O)[nH]c4c3F)CC2)nc1` [Example 83, 6-{4-[(3-chloro-8-fluoro-2-oxo-1H-quinolin-7-yl)methyl]piperazin-1-yl}pyridine-3-carbonitrile] were 6.31 nM, 10 nM and 10 nM.
